Laboratory results published in ChEMBL document CHEMBL4411296, “Design and development of Isatin-triazole hydrazones as potential inhibitors of microtubule affinity-regulating kinase 4 for the therapeutic management of cell proliferation and metastasis” (Eur J Med Chem, 2019).
Activity calls are given as the source filed them. The calls are words filed in the database; no cut-off is given here.

Legend:
HepG2 [1] = test: Induction of apoptosis in human HepG2 cells assessed as necrotic cells at IC50 after 24 hrs by Annexin V-FITC/propidium iodide staining-based flow cytometric analysis (reference value: […]); assay type: functional
MDA-MB-435S [2] = test: Induction of apoptosis in human MDA-MB-435S cells assessed as necrotic cells at IC50 after 24 hrs by Annexin V-FITC/propidium iodide staining-based flow cytometric analysis (reference value: 0.64%); assay type: functional
HEK293 = test: Antiproliferative activity against human HEK293 cells assessed as cell viability after 48 hrs by MTT assay; assay type: cell-based; conditions: HEK293, 48 h
MCF7 [3] = test: Antimigratory activity against human MCF7 cells at IC50 after 48 hrs by wound-healing assay; assay type: functional, cell-based
HepG2 [4] = test: Induction of ROS generation in human HepG2 cells at IC50 after 5 to 6 hrs by DCFDA staining-based spectroflourimetric analysis; assay type: functional, cell-based
[5] = biological target: Ribosomal protein S6 kinase beta-1 (Homo sapiens) (UniProt P23443); test: Inhibition of S6K (unknown origin) at 10 uM after 60 mins by ADP-Glo luminescence assay
[6] = biological target: Calcium/calmodulin-dependent protein kinase type IV (Homo sapiens) (UniProt Q16566); test: Inhibition of CAMK4 (unknown origin) at 10 uM after 60 mins by ADP-Glo luminescence assay
[7] = biological target: Transcription factor HIVEP2 (Homo sapiens) (UniProt P31629); test: Inhibition of MBP2 (unknown origin) at 10 uM after 60 mins by ADP-Glo luminescence assay
[8] = biological target: 5'-AMP-activated protein kinase subunit beta-1 (Homo sapiens) (UniProt Q9Y478); test: Inhibition of AMPKB1 (unknown origin) at 10 uM after 60 mins by ADP-Glo luminescence assay
MCF7 [9] = test: Induction of apoptosis in human MCF7 cells assessed as necrotic cells at IC50 after 24 hrs by Annexin V-FITC/propidium iodide staining-based flow cytometric analysis (reference value: 0.27%); assay type: functional
HepG2 [10] = test: Induction of apoptosis in human HepG2 cells assessed as viable cells at IC50 after 24 hrs by Annexin V-FITC/propidium iodide staining-based flow cytometric analysis (reference value: 97.6%); assay type: functional
MDA-MB-435S [11] = test: cells; conditions: Homo sapiens, 48 h
Description: Antiproliferative activity against human MDA-MB-435S cells assessed as cell viability after 48 hrs by MTT assay

[12] = biological target: Serine/threonine-protein kinase Chk1 (Homo sapiens) (UniProt O14757); test: Inhibition of CHK1 (unknown origin) at 10 uM after 60 mins by ADP-Glo luminescence assay
[13] = biological target: Serine/threonine-protein kinase Chk2 (Homo sapiens) (UniProt O96017); test: Inhibition of CHK2 (unknown origin) at 10 uM after 60 mins by ADP-Glo luminescence assay
[14] = biological target: Serine/threonine-protein kinase D1 (Homo sapiens) (UniProt Q15139); test: Inhibition of PKCmu (unknown origin) at 10 uM after 60 mins by ADP-Glo luminescence assay
MCF7 [15] = test: Induction of apoptosis in human MCF7 cells assessed as late apoptotic cells at IC50 after 24 hrs by Annexin V-FITC/propidium iodide staining-based flow cytometric analysis (reference value: 0.077%); assay type: functional
MCF7 [16] = test: Induction of apoptosis in human MCF7 cells assessed as viable cells at IC50 after 24 hrs by Annexin V-FITC/propidium iodide staining-based flow cytometric analysis (reference value: 98.4%); assay type: functional
[17] = biological target: PAS domain-containing serine/threonine-protein kinase (Homo sapiens) (UniProt Q96RG2); test: Inhibition of PASK (unknown origin) at 10 uM after 60 mins by ADP-Glo luminescence assay
[18] = biological target: Calcium/calmodulin-dependent protein kinase type II subunit alpha (Homo sapiens) (UniProt Q9UQM7); test: Inhibition of CAMK2 alpha (unknown origin) at 10 uM after 60 mins by ADP-Glo luminescence assay
MDA-MB-435S [19] = test: Induction of apoptosis in human MDA-MB-435S cells assessed as late apoptotic cells at IC50 after 24 hrs by Annexin V-FITC/propidium iodide staining-based flow cytometric analysis (reference value: 0.18%); assay type: functional
MDA-MB-435S [20] = test: Induction of ROS generation in human MDA-MB-435S cells at IC50 after 5 to 6 hrs by DCFDA staining-based spectroflourimetric analysis; assay type: functional, cell-based
Albumin = Albumin (Homo sapiens, UniProt P02768); test: Binding affinity to HSA by ITC; assay type: ADME; conditions: isolated protein
[21] = biological target: Calcium/calmodulin-dependent protein kinase type 1 (Homo sapiens) (UniProt Q14012); test: Inhibition of CAMKI (unknown origin) at 10 uM after 60 mins by ADP-Glo luminescence assay
[22] = biological target: Calcium/calmodulin-dependent protein kinase type II subunit beta (Homo sapiens) (UniProt Q13554); test: Inhibition of CAMK2 beta (unknown origin) at 10 uM after 60 mins by ADP-Glo luminescence assay
HepG2 [23] = test: Induction of apoptosis in human HepG2 cells assessed as late apoptotic cells at IC50 after 24 hrs by Annexin V-FITC/propidium iodide staining-based flow cytometric analysis (reference value: 0.039%); assay type: functional
[24] = biological target: MAP kinase-activated protein kinase 2 (Homo sapiens) (UniProt P49137); test: Inhibition of MAPKAPK2 (unknown origin) at 10 uM after 60 mins by ADP-Glo luminescence assay
[25] = biological target: Calcium/calmodulin-dependent protein kinase type II subunit beta (Homo sapiens) (UniProt Q13554); test: Inhibition of CAMKII (unknown origin) at 10 uM after 60 mins by ADP-Glo luminescence assay
[26] = biological target: Serine/threonine-protein kinase pim-1 (Homo sapiens) (UniProt P11309); test: Inhibition of PIM1 (unknown origin) at 10 uM after 60 mins by ADP-Glo luminescence assay
MCF7 [27] = test: Induction of ROS generation in human MCF7 cells at IC50 after 5 to 6 hrs by DCFDA staining-based spectroflourimetric analysis; assay type: functional, cell-based
MDA-MB-435S [28] = test: Induction of apoptosis in human MDA-MB-435S cells assessed as early apoptotic cells at IC50 after 24 hrs by Annexin V-FITC/propidium iodide staining-based flow cytometric analysis (reference value: 0.36%); assay type: functional
MCF7 [29] = test: Antiproliferative activity against human MCF7 cells assessed as cell viability after 48 hrs by MTT assay; conditions: MCF7, 48 h
HepG2 [30] = test: Antiproliferative activity against human HepG2 cells assessed as cell viability after 48 hrs by MTT assay; conditions: HepG2, 48 h

Chain of Calcium/calmodulin-dependent protein kinase type II subunit beta (Homo sapiens) (Q13554 whole entry): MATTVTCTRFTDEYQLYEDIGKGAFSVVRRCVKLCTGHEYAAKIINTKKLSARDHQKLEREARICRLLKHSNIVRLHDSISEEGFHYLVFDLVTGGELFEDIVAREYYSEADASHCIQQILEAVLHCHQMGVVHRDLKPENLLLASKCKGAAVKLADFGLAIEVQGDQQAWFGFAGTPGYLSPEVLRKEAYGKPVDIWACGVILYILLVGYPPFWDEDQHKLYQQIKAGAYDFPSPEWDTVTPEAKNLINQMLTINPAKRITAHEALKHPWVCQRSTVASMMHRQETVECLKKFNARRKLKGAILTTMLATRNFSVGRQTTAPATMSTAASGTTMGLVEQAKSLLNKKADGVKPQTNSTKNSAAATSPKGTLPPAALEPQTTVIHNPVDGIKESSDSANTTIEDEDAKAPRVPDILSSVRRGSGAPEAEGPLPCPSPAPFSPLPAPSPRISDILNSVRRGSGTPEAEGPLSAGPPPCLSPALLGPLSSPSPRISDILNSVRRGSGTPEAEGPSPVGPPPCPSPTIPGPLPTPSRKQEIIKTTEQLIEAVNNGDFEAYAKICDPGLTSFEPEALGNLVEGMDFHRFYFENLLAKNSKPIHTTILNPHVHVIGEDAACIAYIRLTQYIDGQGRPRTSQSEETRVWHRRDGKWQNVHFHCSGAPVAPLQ
Chain of 5'-AMP-activated protein kinase subunit beta-1 (Homo sapiens) (Q9Y478 whole entry): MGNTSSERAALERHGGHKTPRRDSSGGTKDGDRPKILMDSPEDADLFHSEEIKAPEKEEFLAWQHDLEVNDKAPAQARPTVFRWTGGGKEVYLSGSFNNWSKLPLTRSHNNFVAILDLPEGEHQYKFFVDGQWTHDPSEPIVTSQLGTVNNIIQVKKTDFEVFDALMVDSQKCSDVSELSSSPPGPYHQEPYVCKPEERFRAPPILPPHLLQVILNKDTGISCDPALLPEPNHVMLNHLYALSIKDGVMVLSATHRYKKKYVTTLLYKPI
Chain of Albumin (P02768 whole entry): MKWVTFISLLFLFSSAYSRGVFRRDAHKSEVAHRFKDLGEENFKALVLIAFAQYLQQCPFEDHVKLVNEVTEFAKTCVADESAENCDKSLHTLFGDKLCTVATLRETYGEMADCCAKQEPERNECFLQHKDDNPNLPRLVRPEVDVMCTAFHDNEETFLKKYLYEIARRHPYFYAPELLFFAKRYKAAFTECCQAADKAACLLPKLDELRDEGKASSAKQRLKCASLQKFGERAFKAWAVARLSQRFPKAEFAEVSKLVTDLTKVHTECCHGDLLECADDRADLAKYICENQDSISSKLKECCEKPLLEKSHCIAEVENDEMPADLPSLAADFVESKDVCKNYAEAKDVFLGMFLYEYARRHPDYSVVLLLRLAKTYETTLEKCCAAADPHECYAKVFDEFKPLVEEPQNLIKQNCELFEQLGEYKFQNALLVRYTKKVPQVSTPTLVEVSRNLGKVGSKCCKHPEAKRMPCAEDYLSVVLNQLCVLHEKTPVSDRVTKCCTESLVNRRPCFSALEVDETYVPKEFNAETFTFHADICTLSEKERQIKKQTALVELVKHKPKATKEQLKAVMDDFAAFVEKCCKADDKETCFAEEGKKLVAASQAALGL
Chain of Calcium/calmodulin-dependent protein kinase type IV (Homo sapiens) (Q16566 whole entry): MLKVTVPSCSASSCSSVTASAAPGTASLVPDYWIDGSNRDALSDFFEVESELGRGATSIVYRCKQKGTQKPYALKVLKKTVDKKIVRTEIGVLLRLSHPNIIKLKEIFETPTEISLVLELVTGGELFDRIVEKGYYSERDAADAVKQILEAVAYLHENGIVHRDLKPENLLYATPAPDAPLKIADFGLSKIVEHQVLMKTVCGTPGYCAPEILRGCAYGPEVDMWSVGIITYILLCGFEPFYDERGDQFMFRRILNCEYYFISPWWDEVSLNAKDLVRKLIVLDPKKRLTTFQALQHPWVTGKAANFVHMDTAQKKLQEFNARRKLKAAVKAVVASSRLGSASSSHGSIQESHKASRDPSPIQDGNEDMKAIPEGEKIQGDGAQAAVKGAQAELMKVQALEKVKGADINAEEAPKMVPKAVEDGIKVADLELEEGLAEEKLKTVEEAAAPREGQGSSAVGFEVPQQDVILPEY
Chain of PAS domain-containing serine/threonine-protein kinase (Homo sapiens) (Q96RG2 whole entry, the tested form may be a part): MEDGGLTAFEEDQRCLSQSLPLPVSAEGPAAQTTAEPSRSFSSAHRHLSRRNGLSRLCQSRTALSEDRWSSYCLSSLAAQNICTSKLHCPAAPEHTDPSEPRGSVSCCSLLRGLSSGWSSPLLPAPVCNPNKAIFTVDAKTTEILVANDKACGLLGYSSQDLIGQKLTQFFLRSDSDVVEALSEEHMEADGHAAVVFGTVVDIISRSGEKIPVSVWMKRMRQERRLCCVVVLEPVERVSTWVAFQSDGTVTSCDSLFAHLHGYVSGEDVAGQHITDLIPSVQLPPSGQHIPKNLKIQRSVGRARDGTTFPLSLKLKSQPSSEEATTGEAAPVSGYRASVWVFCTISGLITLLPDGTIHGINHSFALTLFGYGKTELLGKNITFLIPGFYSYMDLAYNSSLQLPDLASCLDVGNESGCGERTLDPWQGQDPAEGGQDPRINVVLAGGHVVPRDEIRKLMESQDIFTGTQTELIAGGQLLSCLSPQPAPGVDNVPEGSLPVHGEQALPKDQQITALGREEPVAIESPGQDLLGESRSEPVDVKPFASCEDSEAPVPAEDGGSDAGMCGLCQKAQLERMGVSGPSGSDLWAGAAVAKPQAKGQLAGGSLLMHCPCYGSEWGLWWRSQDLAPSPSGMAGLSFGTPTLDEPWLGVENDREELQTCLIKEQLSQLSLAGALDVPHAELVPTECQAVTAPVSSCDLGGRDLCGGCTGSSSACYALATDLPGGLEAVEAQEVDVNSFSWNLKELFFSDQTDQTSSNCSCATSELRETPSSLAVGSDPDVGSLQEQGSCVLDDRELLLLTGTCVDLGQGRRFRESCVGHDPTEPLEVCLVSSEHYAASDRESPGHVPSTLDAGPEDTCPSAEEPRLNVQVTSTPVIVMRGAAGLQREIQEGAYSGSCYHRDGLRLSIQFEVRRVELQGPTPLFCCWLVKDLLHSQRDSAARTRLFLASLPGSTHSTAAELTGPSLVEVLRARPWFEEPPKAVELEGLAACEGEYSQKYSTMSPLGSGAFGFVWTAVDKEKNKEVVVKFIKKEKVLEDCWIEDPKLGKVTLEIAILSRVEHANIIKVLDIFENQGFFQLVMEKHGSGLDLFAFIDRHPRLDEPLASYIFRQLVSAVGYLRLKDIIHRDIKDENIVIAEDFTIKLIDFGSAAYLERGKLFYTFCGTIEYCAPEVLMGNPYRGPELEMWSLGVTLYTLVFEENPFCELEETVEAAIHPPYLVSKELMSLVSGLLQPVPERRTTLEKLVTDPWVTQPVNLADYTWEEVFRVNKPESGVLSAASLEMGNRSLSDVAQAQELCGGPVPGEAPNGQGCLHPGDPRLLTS
Chain of Serine/threonine-protein kinase D1 (Homo sapiens) (Q15139 whole entry): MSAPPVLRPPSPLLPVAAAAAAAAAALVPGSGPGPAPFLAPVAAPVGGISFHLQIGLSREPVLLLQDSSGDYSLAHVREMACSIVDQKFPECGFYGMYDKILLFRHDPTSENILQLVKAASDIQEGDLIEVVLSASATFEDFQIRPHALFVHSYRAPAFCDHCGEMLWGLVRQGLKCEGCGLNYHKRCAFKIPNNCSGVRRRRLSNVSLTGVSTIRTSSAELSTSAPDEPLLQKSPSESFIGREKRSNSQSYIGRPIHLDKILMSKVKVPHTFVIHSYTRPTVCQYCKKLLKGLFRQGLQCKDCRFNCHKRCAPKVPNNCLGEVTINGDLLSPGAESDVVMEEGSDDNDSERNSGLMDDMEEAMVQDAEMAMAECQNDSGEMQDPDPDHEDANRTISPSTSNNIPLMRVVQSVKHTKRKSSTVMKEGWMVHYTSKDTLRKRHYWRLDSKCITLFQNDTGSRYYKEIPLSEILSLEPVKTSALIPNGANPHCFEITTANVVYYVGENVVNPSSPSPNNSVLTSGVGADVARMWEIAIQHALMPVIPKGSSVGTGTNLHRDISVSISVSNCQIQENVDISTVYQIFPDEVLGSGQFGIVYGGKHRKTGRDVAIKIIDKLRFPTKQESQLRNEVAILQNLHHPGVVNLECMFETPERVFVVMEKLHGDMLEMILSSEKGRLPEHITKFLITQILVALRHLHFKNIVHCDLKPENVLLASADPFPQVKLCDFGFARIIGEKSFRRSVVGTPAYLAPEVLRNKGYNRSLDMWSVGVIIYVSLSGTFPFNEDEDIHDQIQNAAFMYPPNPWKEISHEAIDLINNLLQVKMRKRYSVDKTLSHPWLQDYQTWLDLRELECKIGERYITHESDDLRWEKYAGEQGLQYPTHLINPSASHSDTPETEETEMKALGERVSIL
Chain of Serine/threonine-protein kinase Chk1 (Homo sapiens) (O14757 whole entry): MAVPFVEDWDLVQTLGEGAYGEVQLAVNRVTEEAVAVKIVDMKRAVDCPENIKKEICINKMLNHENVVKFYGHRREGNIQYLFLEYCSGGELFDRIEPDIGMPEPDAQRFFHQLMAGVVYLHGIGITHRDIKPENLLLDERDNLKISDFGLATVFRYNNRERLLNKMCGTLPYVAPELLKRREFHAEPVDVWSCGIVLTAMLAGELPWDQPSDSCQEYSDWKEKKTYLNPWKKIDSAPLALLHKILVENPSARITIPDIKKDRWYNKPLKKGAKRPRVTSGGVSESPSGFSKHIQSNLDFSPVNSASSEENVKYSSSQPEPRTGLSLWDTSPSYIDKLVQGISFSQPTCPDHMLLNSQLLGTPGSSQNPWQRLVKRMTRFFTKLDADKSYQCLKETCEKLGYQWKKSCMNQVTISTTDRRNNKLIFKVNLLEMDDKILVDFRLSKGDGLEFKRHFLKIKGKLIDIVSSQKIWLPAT
Chain of Serine/threonine-protein kinase pim-1 (Homo sapiens) (P11309 whole entry, looked up): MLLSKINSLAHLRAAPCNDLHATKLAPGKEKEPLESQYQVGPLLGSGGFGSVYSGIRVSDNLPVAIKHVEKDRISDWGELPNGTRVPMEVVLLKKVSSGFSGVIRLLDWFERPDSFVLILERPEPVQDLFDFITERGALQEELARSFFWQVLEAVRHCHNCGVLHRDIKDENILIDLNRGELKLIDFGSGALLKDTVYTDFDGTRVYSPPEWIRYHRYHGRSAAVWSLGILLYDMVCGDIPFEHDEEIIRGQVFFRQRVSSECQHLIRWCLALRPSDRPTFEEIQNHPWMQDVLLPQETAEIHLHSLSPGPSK

## COc1ccc(Cn2cc(C(=O)N/N=C3/C(=O)Nc4c(C)cccc43)nn2)cc1
HepG2 [1]
  Activity: 2.11%
MDA-MB-435S [2]
  Activity: 0.59%
HEK293
  IC50: 200 µM
MCF7 [3]
  Activity: Active
HepG2 [4]
  Activity: Active
[5]
  inhibition: inactive
[6]
  inhibition: inactive
[7]
  inhibition: inactive
[8]
  inhibition: inactive
MCF7 [9]
  Activity: 0.75%
HepG2 [10]
  Activity: 59.4%
MDA-MB-435S [11]
  IC50: 9.94 µM
[12]
  inhibition: inactive
[13]
  inhibition: inactive
[14]
  inhibition: inactive
MCF7 [15]
  Activity: 13.1%
MCF7 [16]
  Activity: 52.6%
[17]
  inhibition: inactive
[18]
  inhibition: inactive
MDA-MB-435S [19]
  Activity: 2.24%
MDA-MB-435S [20]
  Activity: Active
Albumin
  Ka: 1.27 ×10⁴ /M
[21]
  inhibition: inactive
[22]
  inhibition: inactive
HepG2 [23]
  Activity: 1.19%
[24]
  inhibition: inactive
[25]
  inhibition: inactive
[26]
  inhibition: inactive
MCF7 [27]
  Activity: Active
MDA-MB-435S [28]
  Activity: 30.9%
MCF7 [29]
  IC50: 6.22 µM
HepG2 [30]
  IC50: 8.14 µM
